Entries after “also recorded” stand apart in the source; their conditions may differ.
Legend:
[1] = system: HIF-HRE transcriptional activity in SKN:HRE-MLuc cells (reflects FIH-1 inhibition); experiment: HIF activity under hypoxia, HRE-MLuc luciferase reporter assay; type: cell-based, human; details: for activation at 100 µM / minimal effective concentration: Homo sapiens, SKN:HRE-MLuc cells, 3% O2, 24 h; for activation at 100 µM: read-out: 100 μM Activity (RLU intensity at 100 μM stimulation compared with the positive control DMOG); for minimal effective concentration: doses 100, 25, 6.3, 1.6 μM, DMOG 100 μM as positive control, read-out: 25% Activity (lower dose limit showing 25% of the RLU intensity of the positive control DMOG); for HIF activity (HRE-MLuc reporter), result in words: hypoxic conditions (3% O2), 24 h, reference compounds at 100 μM
Procedure: To evaluate HIF transactivation following FIH-1 inhibition […], we employed a luciferase reporter assay system in the human neuroblastoma cell line SK-N-BE(2)c. […] Hereafter these HRE reporter cells were designated SKN:HRE-MLuc cells.
SKN:HRE-MLuc (4 × 10^4) were incubated for 24 h on a 96 well culture plate. The medium was replaced with complete media and the test compounds (100, 25, 6.3 and 1.6 μM). DMSO (0.1%) was used as a vehicle control, DMOG (100 μM) and FG4592 (100 μM) were used as a PHDs or FIH-1 inhibitor. The cells were incubated for 24 h under a humidified atmosphere of 5% CO2 and 3% O2 at 37 °C. After incubation, the MLuc activity in culture media was measured with luciferase substrate (Takara, Shiga, Japan) by LB960 luminometer (Berthold, Wildbad, Germany). The HIF activity was calculated as the MLuc intensity, based on the vehicle and positive controls. The lower limit dose out of 100 μM, 25 μM, 6.3 μM, 1.6 μM was listed in Table 1 and Table 2, where 25% RLU intensity was measured using DMOG as a positive control.

[2] = system: HIF-HRE transcriptional activity in SKN:HRE-MLuc cells (PHD inhibition); experiment: HIF activity under normoxia, HRE-MLuc luciferase reporter assay; type: cell-based, human; details: normoxic conditions, 100 μM, 24 h
Description: We next measured HIF transactivity of FIH-1 inhibitors under normoxic conditions to confirm whether these inhibitors stabilized HIF via inhibiting PHD. Under normoxic conditions, inhibition of PHD dramatically activated HRE reporter. In contrast, when PHD was inhibited under hypoxic conditions, the rate of activation of the HRE reporter was low because hypoxia already partially activated the HRE reporter. The compounds showing HIF activation under hypoxic conditions (compounds 7, 9–11, 15–18, 28, 30, and 38) were evaluated by the luciferase assays in SKN:HRE-MLuc cells under normoxic conditions (Figure 6).
SKN:HRE-MLuc (4 × 10^4) were incubated for 24 h on a 96 well culture plate. The medium was replaced with complete media and the tested compounds (100 μM). DMSO (0.1%) was used as a negative control, and DMOG (100 μM) was used as a positive control. The cells were incubated for 24 h under a humidified atmosphere of 5% CO2 at 37 °C. After incubation, the MLuc activity in culture media was measured with the method descried above.

[3] = system: SKN:HRE-MLuc cells; experiment: MTS assay (cellular toxicity); type: cell-based, human; details: for IC50: Homo sapiens, MTS assay
Description: Next, we evaluated the activation of HIF by furan- and thiophene-2-carbonyl amino acid derivatives using the evaluation methods described above. Simultaneously, we investigated cellular toxicity for those derivatives with a 3-(4,5-dimethylthiazol-2-yl)-5-(3-carboxymethoxyphenyl)-2-(4-sulfophenyl)-2H-tetrazolium (MTS) assay. To indicate cellular membrane permeability, the partition coefficients, which are frequently represented by calculated logP (clogP) are listed in Table 1 and Table 2.
Cellular toxicity was measured using the CellTiter 96® Aqueous One Solution Cell Proliferation Assay kit (Promega, Madison, WI, USA). The cells were stimulated with each compound and treated with the CellTiter solution. After incubation for 3 h, the absorbance of the solutions at 492 nm was measured by Multiskan FC (Thermo Fisher Scientific, Waltham, MS, USA). As a negative control, wells with culture media were used. Wells treated with DMSO (0.1%) were used as a positive control. The IC50 values were determined using these controls.

[4] = system: CA9 mRNA in SK-N-BE(2)c cells; experiment: Quantitative RT-PCR of HIF target gene CA9; type: cell-based, human; details: 100 μM, 3% O2, SK-N-BE(2)c cells
Procedure: (§1) To confirm transactivation of HIF by our optimized compounds, the expression of HIF target genes was analyzed with quantitative polymerase chain reaction (PCR) in SK-N-BE(2)c cells. We attempted to analyze several HIF target genes including CA9, VEGF-α, EPO, and PHD3, under 3% O2 conditions.
(§2) Total RNA was extracted from cells using ISOGEN (Nippon Gene, Tokyo, Japan). cDNA syntheses were performed using random hexamer primers and SuperScript II Reverse Transcriptase (Thermo Fisher Scientific) following the manufacturer’s instructions. Quantitative reverse transcription polymerase-chain reaction (RT-PCR) analysis was performed as follows: amplification was done in an initial denaturing step at 96 °C for 2 min, followed by 35 cycles of PCR (96 °C for 1 min, 57 °C for 30 s, 72 °C for 30 s) using recombinant Taq polymerase (Takara, Otsu, Japan) with the respective primer pairs. For human carbonic anhydrase IX (CA9), 5′-CCTGGCTGCTGGTGACATCC-3′ and 5′-AAGGAAGTGGCATAATGAGC-3′. […] Data were analyzed using the comparative Ct method as means of relative quantification, and were normalized to an endogenous reference (β-actin) and relative to a calibrator (normalized Ct value obtained from cells treated with vehicle only). Data were expressed as 2^−ΔΔCt.

[5] = system: HIF-1α mRNA in SK-N-BE(2)c cells; experiment: Quantitative RT-PCR of HIF-1α mRNA; type: cell-based, human; details: 100 μM, 3% O2, SK-N-BE(2)c cells
Procedure: as §1, §2

[6] = system: HIF-HRE transcriptional activity in SKN:HRE-MLuc cells (reflects FIH-1 inhibition); experiment: HIF activity under hypoxia, HRE-MLuc luciferase reporter assay; type: cell-based, human; details: 100 μM; normoxic or hypoxic (3% O2), control or FIH-1 siRNA transfectants, Figure 3c (A vs E, F, G, H)

| Structure (SMILES) | melting point [°C] | activation at 100 µM [1] [%] | minimal effective concentration [1] [µM] | HIF activity (HRE-MLuc reporter), result in words [1] | HIF transactivation (HRE-MLuc reporter), result in words [2] | IC50 [3] [µM] | CA9 mRNA expression, result in words [4] | HIF-1α mRNA level, result in words [5] | Cellular toxicity in the MTS assays, result in words [3] | HIF stabilization activity (HRE-MLuc reporter), result in words [6] |
| --- | --- | --- | --- | --- | --- | --- | --- | --- | --- | --- |
| COC(=O)[C@H](Cc1ccccc1)NC(=O)c1ccc(C)o1 [Compound 7, (S)-Methyl (5-methylfuran-2-carbonyl)phenylalaninate] | – | 22 | 25 | stabilized HIF and transactivated the HRE-driven MLuc reporter | did not elicit any HIF transactivation | > 100 | – | – | – | – |
| COC(=O)[C@H](Cc1c[nH]c2ccccc12)NC(=O)c1ccc(C)o1 [Compound 9, (S)-Methyl (5-methylfuran-2-carbonyl)tryptophanate] | – | 22 | 25 | – | – | > 100 | significantly elevated | slightly suppressed by DMOG treatment but not by treatment with compound 9 | – | – |
| CCOC(=O)[C@H](Cc1ccccc1)NC(=O)c1cc(-c2ccccc2)cs1 [Compound 27, (S)-Ethyl (4-phenylthiophene-2-carbonyl)phenylalaninate] | 94 to 96 | 2 | – | – | – | > 100 | – | – | – | – |
| COC(=O)[C@H](Cc1c[nH]c2ccccc12)NC(=O)c1cc(-c2ccccc2)cs1 [Compound 28, (S)-Methyl (4-phenylthiophene-2-carbonyl)tryptophanate] | 150 to 152 | 0 | 25 | stabilized HIF and transactivated the HRE-driven MLuc reporter | did not elicit any HIF transactivation | > 100 | – | – | – | – |
| COC(=O)[C@H](Cc1c[nH]c2ccccc12)NC(=O)c1cc2ccccc2o1 [Compound 38, (S)-Methyl (benzofuran-2-carbonyl)tryptophanate] | – | 25 | 25 | stabilized HIF and transactivated the HRE-driven MLuc reporter | did not elicit any HIF transactivation | > 100 | – | – | – | – |
| COC(=O)CNC(=O)C(=O)OC [DMOG, dimethyloxalyl glycine, reference compound] | – | – | – | – | – | – | – | slightly suppressed | – | higher HIF stabilization activity |
| Cc1nc(C(=O)NCC(=O)O)c(O)c2ccc(Oc3ccccc3)cc12 [FG4592, reference compound] | – | – | – | only slightly stabilized HIF | stabilized HIF compared with vehicle-treated cells; also recorded: showed significant HRE reporter activity | – | – | – | – | – |

More lines, main results first:

| melting point [°C] | Structure (SMILES) | activation at 100 µM [1] [%] | minimal effective concentration [1] [µM] | HIF activity (HRE-MLuc reporter), result in words [1] | HIF transactivation (HRE-MLuc reporter), result in words [2] | IC50 [3] [µM] | CA9 mRNA expression, result in words [4] | HIF-1α mRNA level, result in words [5] | Cellular toxicity in the MTS assays, result in words [3] | HIF stabilization activity (HRE-MLuc reporter), result in words [6] |
| --- | --- | --- | --- | --- | --- | --- | --- | --- | --- | --- |
| 93 to 96 | COC(=O)CNC(=O)c1cc(-c2ccccc2)cs1 [Compound 26, Methyl (4-phenylthiophene-2-carbonyl)glycinate] | 0 | – | – | – | > 100 | – | – | – | – |
| 145 to 149 | COC(=O)[C@@H](Cc1c[nH]c2ccccc12)NC(=O)c1cc(-c2ccccc2)cs1 [Compound 29, (R)-Methyl (4-phenylthiophene-2-carbonyl)tryptophanate] | 0 | – | – | – | > 100 | – | – | – | – |
| 176 to 178 | COC(=O)[C@H](Cc1ccc(O)cc1)NC(=O)c1cc(-c2ccccc2)cs1 [Compound 30, (S)-Methyl (4-phenylthiophene-2-carbonyl)tyrosinate] | 0 | 6.3 | stabilized HIF and transactivated the HRE-driven MLuc reporter | did not elicit any HIF transactivation | 75 | – | – | showed cellular toxicity | – |
| 183 to 185 | COC(=O)CNC(=O)c1ccc(-c2ccc(-c3ccccc3)cc2)s1 [Compound 31, Methyl (5-((1,1′-biphenyl)-4-yl)thiophene-2-carbonyl)glycinate] | 0 | – | – | – | > 100 | – | – | – | – |

— article PMC6017830, “Furan- and Thiophene-2-Carbonyl Amino Acid Derivatives Activate Hypoxia-Inducible Factor via Inhibition of Factor Inhibiting Hypoxia-Inducible Factor-1” (Molecules : A Journal of Synthetic Chemistry and Natural …, 2018)
